Measured values reported in patent US9617267B2, “Compounds and methods for kinase modulation, and indications therefor” (Plexxikon Inc., priority 2009, dated 2017).
Like-named read-outs stand apart in the source and are kept apart here.

Columns and labels:
CYP1A2 = CYP1A2 (Homo sapiens (Human), UniProt P05177); assay: CYP enzyme inhibition, fluorescent substrate (CEC); details: human, 15 min
Procedure, shortened: (§1)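 IC50 derived from loss of fluorescent metabolite across a 10-point 1:1 dilution series. CYP2D6: 1.5 pmol enzyme, 1.5 μM AMMC, 30 min at 37 °C, 409/530 nm; CYP1A2: 0.5 pmol, 5 μM CEC, 15 min, 409/460 nm. Compounds pre-incubated 10 min in NADPH-regenerating mix.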

CYP2C19 = CYP2C19 (Homo sapiens (Human), UniProt P33261); assay: CYP enzyme inhibition, fluorescent substrate (CEC); details: read-out: Cyp IC50 2C19; CYP2C19, substrate CEC
Sequence of CYP2C19 (P33261 whole entry): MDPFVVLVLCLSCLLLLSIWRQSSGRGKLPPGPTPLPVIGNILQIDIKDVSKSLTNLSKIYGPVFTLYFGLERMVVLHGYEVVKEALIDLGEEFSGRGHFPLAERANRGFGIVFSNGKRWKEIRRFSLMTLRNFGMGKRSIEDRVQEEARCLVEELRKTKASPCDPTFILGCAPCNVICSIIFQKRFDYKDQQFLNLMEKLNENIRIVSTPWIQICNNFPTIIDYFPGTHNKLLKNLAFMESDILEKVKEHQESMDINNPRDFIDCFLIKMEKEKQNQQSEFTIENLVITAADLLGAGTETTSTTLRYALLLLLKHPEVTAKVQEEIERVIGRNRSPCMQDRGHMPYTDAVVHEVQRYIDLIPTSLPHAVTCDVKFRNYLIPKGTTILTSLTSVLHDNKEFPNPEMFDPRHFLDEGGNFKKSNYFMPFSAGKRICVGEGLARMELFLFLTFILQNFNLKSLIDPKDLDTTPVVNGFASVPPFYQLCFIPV
Procedure, shortened: (§2)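 First, 100 mM DMSO stocks are diluted into acetonitrile, then twofold through co-factor mix for 10 points. Next, mixtures are preincubated 10 min at 37 °C.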

CYP2C9 = CYP2C9 (Homo sapiens (Human), UniProt P11712); assay: CYP enzyme inhibition, fluorescent substrate (MFC)
Sequence of CYP2C9 (P11712 whole entry): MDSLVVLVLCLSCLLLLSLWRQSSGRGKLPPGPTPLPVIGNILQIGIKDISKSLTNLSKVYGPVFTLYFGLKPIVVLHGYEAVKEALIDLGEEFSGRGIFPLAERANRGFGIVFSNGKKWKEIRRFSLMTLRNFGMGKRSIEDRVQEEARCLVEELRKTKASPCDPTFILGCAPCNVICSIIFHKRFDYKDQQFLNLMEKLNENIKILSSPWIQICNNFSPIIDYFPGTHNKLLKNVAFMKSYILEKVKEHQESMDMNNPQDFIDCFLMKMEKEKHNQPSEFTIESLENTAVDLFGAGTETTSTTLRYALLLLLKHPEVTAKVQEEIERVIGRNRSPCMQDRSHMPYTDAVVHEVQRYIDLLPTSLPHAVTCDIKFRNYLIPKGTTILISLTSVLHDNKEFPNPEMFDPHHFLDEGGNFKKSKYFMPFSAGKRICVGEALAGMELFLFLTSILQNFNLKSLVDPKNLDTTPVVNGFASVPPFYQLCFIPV
Procedure, shortened: as §2

CYP2D6 = CYP2D6 (Homo sapiens (Human), UniProt P10635); assay: CYP enzyme inhibition, fluorescent substrate (AMMC); assay type: in vitro ADME; details: read-out: Cyp IC50 2D6
Sequence of CYP2D6 (P10635 whole entry): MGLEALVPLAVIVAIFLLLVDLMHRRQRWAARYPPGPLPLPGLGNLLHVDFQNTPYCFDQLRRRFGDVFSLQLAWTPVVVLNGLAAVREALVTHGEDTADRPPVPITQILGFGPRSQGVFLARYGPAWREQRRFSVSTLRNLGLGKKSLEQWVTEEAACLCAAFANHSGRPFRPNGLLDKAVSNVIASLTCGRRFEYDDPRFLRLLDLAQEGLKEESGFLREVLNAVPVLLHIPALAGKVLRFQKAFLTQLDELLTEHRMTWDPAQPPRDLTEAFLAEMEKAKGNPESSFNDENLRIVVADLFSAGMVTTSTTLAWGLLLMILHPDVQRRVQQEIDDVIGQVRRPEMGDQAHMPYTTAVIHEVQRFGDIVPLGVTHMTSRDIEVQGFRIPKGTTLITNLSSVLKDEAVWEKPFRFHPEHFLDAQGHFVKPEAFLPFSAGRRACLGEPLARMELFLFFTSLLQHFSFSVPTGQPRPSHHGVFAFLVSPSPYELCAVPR
Procedure, shortened: as §1

CYP3A4(BFC) = CYP3A4(BFC) (Homo sapiens (Human), UniProt P08684); assay: CYP enzyme inhibition, fluorescent substrate BFC; details: read-out: Cyp IC50 3A4(BFC); CYP3A4, substrate BFC
Sequence of CYP3A4(BFC) (P08684 whole entry): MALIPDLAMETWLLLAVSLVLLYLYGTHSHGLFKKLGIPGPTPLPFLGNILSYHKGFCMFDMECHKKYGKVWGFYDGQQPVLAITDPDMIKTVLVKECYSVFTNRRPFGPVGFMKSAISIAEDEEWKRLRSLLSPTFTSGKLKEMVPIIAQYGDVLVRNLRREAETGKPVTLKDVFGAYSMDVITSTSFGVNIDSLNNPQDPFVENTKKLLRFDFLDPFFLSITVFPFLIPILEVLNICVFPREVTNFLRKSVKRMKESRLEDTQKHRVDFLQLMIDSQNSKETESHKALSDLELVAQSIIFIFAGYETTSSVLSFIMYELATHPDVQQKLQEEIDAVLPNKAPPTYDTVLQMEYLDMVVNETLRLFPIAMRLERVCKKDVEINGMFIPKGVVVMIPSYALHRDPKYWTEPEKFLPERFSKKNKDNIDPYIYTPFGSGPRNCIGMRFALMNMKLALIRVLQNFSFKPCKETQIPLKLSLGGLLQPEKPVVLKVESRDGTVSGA
Procedure, shortened: as §2

CYP3A4(BQ) = CYP3A4(BQ) (Homo sapiens (Human), UniProt P08684); assay: CYP enzyme inhibition, fluorescent substrate BQ; details: read-out: Cyp IC50 3A4(BQ); CYP3A4, substrate BQ
Sequence of CYP3A4(BQ) (P08684 whole entry): as above
Method: CYP (Cytochrome P450) enzymes are the major drug metabolizing enzymes present in the liver. The inhibition of CYP enzyme activity (IC50) for each of CYP1A2, CYP2C19, CYP2C9, CYP2D6, CYP3A4(BFC) and CYP3A4(BQ) is determined for compounds, where inhibition of metabolism of a known substrate leads to a decrease in the fluorescence of the metabolized product. The fluorescence of the product is monitored as a function of compound concentration.
Compounds are dissolved in dimethyl sulfoxide to a concentration of 100 mM. These are diluted 1 μL into 82 μL of acetonitrile. […] These are then serially diluted 1:1 (160 μL to 160 μL co-factor mix) for a total of 10 points. A 10 μL aliquot of this final mixture is dispensed into 384 well assay plates and incubated for 10 minutes at 37° C. […] Assay plates are incubated at 37° C. […] The signal versus compound concentration is used to determine the IC50. The enzymes and substrates for this assay are obtained from BD Biosciences.

[1] = read-out: Cyp IC50 2C9, CYP2C9, substrate MFC

Sequence of CYP1A2 (P05177 whole entry): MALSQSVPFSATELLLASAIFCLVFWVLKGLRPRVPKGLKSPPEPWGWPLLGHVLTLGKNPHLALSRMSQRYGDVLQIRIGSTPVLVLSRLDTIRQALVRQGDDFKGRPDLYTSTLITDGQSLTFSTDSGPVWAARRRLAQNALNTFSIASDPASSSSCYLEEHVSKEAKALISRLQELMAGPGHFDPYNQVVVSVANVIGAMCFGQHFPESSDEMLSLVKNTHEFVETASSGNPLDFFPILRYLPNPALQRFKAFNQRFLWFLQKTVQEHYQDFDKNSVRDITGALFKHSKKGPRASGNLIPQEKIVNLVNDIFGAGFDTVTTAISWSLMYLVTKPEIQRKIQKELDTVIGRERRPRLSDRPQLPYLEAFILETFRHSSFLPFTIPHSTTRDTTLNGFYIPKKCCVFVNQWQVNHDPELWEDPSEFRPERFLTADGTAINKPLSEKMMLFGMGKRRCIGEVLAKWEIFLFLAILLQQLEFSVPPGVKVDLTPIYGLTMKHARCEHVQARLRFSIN

Row | IC50 (CYP1A2) [µM] | IC50 (CYP2C19) [µM] | IC50 (CYP2C9; [1]) [µM] | IC50 (CYP2D6) [µM] | IC50 (CYP3A4(BFC)) [µM] | IC50 (CYP3A4(BQ)) [µM] | IC50 (CYP2C9) [µM] | SMILES
1 | > 10 | > 10 | > 10 | > 10 | > 10 | > 10 |  | COc1cccc(Nc2ncnc3[nH]cc(C(=O)c4c(F)ccc(NS(=O)(=O)c5cc(F)ccc5F)c4F)c23)c1 [P-1139, N-{2,4-Difluoro-3-[4-(3-methoxy-phenylamino)-7H-pyrrolo[2,3-d]pyrimidine-5-carbonyl]-phenyl}-2,5-difluoro-benzenesulfonamide]
2 | > 10 | > 10 | > 10 | > 10 | > 10 | > 10 |  | COc1cccc(Nc2ncnc3[nH]cc(C(=O)c4c(F)ccc(NS(=O)(=O)c5ccccc5F)c4F)c23)c1 [P-1149, N-{2,4-Difluoro-3-[4-(3-methoxy-phenylamino)-7H-pyrrolo[2,3-d]pyrimidine-5-carbonyl]-phenyl}-2-fluoro-benzenesulfonamide]
3 | > 10 | > 10 | > 10 | > 10 | > 10 | > 10 |  | CCn1cc(Nc2ncnc3[nH]cc(C(=O)c4c(F)ccc(NS(=O)(=O)c5cc(F)ccc5F)c4F)c23)cn1 [P-1142, N-{3-[4-(1-Ethyl-1H-pyrazol-4-ylamino)-7H-pyrrolo[2,3-d]pyrimidine-5-carbonyl]-2,4-difluoro-phenyl}-2,5-difluoro-benzenesulfonamide]
4 | > 10 | > 10 | > 10 | > 10 | > 10 | > 10 |  | CCCS(=O)(=O)Nc1ccc(F)c(C(=O)c2c[nH]c3ncnc(NCc4ccccc4)c23)c1F [P-1074, Propane-1-sulfonic acid [3-(4-benzylamino-7H-pyrrolo[2,3-d]pyrimidine-5-carbonyl)-2,4-difluoro-phenyl]-amide]
5 | > 10 | > 10 | > 10 | > 10 | > 10 | > 10 |  | CCCS(=O)(=O)Nc1ccc(F)c(C(=O)c2c[nH]c3ncnc(Nc4ccc(OC)nc4)c23)c1F [P-1090, Propane-1-sulfonic acid {2,4-difluoro-3-[4-(6-methoxy-pyridin-3-ylamino)-7H-pyrrolo[2,3-d]pyrimidine-5-carbonyl]-phenyl}-amide]
6 | > 10 | > 10 | > 10 | > 10 | > 10 | > 10 |  | O=C(c1c(F)ccc(NS(=O)(=O)c2cc(F)ccc2F)c1F)c1c[nH]c2ncnc(NCC3CC3)c12 [P-1137, N-{3-[4-(Cyclopropylmethyl-amino)-7H-pyrrolo[2,3-d]pyrimidine-5-carbonyl]-2,4-difluoro-phenyl}-2,5-difluoro-benzenesulfonamide]
7 | > 10 | > 10 |  | > 10 | > 10 | > 10 | 5 to 10 | CC(C)Nc1ncnc2[nH]cc(C(=O)c3c(F)ccc(NS(=O)(=O)c4cc(F)ccc4F)c3F)c12 [P-1111, N-[2,4-Difluoro-3-(4-isopropylamino-7H-pyrrolo[2,3-d]pyrimidine-5-carbonyl)-phenyl]-2,5-difluoro-benzenesulfonamide]
